Target: Nav1.5 ion channel (Homo sapiens (Human), UniProt Q14524)
Experiment: Manual patch clamp inhibition of Nav1.5 current in HEK293 cell
Assay type: cell-based
Conditions: whole-cell patch clamp, read-out: IC50 on inhibiting the Nav1.5 channel activity
Experimental: The purpose of the experiment is to investigate the effect of the compounds on Nav1.5 ion channel in an […] experiment. Nav1.5 ion channel is stably expressed on HEK293 cell. After the Nav1.5 current becomes stable, the Nav1.5 currents before and after the administration of the compound are compared so as to obtain the effect of the compound on the Nav1.5 ion channel.
Extracellular fluid: NaCl, 137 mM; KCl, 4 mM; CaCl2), 1.8 mM; MgCl2, 1 mM; HEPES, 10; glucose, 10 mM; pH 7.4 (NaOH titration).
Intracellular fluid: aspartic acid, 140 mM; MgCl2, 2 mM; EGTA, 11 mM; HEPES, 10 mM; pH 7.2 (CsOH titration).
The test compound was dissolved in dimethyl sulfoxide (DMSO) at a stock concentration of 9 mM. The stock solution of the test compound was dissolved in the extracellular fluid on the day of the test and formulated into the required concentration.
1) The compound was formulated into solutions with specified concentrations. The solutions were added to the pipelines respectively in order from high to low concentration, and the pipelines were marked.
2) The cell was transferred to the perfusion tank, and perfused with the extracellular fluid. The intracellular fluid was stored in small batches in a −80° C. refrigerator, and melted on the day of the experiment. The electrode was pulled with PC-10 (Narishige, Japan). Recording was carried out with the whole-cell patch clamp, and the noise was filtered at one-fifth of the sampling frequency.
3) All compounds were perfused with a perfusion system that uses its own gravity. Each concentration was tested in at least two cells. After the current stabilized (or after 5 minutes), the blocking effect of the compound was calculated by comparing the changes in the current before and after the administration of the compound.
The cell was clamped at −80 mV. The cell was depolarized to Vhalf with a square wave lasting 8 milliseconds, hyperpolarized to −120 mV with a square wave lasting 20 milliseconds, and depolarized to −10 mV with a square wave lasting 20 milliseconds to obtain the Nav1.5 current. This procedure was repeated every 15 seconds. The maximum current caused by the −10 mV square wave was measured. After the current became stable, the test compound was perfused. After the response became stable, the blocking intensity was calculated.
The data was stored in the computer system for analysis. Data collection and analysis were carried out by pCLAMP 10 (Molecular Devices, Union City, CA). Stable current means that the absolute average value of the peak current of four consecutive scans exceeds 200 pA and the CV value is less than 10%, or the average value of the peak current of four consecutive scans is between 200 pA and 50 pA and the CV value is less than 30%. The average value of the last four current peaks after the current stabilized was used to calculate the effect of the compound at the concentration.

Sequence of Nav1.5 ion channel (Q14524 whole entry): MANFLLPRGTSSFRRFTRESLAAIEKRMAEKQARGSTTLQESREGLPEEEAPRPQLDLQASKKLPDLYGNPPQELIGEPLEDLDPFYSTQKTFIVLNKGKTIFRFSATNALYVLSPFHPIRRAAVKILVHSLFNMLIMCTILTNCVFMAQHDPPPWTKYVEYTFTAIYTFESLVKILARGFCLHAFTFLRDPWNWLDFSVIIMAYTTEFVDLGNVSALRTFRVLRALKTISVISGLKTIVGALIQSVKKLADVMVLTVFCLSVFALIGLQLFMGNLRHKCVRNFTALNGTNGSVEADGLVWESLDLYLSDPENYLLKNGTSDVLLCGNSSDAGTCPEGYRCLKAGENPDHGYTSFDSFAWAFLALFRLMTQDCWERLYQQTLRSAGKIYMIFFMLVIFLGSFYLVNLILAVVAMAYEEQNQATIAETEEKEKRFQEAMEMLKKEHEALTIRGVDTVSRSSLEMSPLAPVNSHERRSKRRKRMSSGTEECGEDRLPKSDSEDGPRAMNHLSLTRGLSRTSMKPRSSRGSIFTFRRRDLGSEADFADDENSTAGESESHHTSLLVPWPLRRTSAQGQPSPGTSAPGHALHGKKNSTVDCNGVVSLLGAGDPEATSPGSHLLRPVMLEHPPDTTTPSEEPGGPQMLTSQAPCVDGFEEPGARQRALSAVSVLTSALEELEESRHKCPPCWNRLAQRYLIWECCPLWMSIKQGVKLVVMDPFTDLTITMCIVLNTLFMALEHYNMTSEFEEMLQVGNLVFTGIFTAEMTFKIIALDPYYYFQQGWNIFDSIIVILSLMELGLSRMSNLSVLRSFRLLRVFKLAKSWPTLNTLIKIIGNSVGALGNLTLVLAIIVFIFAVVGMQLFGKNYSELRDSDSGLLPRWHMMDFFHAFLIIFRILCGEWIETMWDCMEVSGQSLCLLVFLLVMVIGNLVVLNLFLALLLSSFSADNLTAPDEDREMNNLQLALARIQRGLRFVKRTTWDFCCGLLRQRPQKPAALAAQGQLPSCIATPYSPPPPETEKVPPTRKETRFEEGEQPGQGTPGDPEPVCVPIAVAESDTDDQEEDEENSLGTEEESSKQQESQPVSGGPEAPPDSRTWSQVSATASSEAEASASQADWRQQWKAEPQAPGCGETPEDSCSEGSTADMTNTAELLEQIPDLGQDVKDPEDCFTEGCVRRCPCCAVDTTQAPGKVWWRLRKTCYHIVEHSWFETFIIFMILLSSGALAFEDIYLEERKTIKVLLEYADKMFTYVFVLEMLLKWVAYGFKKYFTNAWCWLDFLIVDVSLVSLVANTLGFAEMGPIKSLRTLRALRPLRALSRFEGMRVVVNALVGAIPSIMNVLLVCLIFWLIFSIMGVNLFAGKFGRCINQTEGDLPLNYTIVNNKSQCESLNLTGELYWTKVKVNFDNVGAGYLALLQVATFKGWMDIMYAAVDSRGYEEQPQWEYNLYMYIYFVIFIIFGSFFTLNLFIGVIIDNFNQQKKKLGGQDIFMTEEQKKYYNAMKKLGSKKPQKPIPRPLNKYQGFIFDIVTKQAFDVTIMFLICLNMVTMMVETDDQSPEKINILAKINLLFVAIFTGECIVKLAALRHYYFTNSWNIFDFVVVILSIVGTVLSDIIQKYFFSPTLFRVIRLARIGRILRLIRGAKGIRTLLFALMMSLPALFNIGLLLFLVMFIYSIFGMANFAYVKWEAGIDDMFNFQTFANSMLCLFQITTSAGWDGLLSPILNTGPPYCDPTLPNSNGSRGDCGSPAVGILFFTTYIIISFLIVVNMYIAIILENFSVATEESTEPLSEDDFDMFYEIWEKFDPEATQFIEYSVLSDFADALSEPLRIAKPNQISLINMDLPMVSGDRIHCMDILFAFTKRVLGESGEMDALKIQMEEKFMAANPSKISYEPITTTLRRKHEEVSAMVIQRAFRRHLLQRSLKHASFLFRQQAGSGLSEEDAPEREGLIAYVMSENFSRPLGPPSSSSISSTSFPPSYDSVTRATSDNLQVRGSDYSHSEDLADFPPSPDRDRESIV

| Compound | IC50 |
| --- | --- |
| O=C(/C=C/CNC1(COc2ccc(/C(=C(/CC(F)(F)F)c3ccccc3)c3ccc4[nH]nc(F)c4c3)cn2)CC1)N1CCOCC1 [Example 1, (E)-1-Morpholino-4-((1-(((5-((Z)-4,4,4-trifluoro-1-(3-fluoro-1H-indazol-5-yl)-2-phenylbut-1-en-1-yl)pyridin-2-yl)oxy)methyl)cyclopropyl)amino)but-2-en-1-one] | > 10 µM |
| CN(C)C(=O)/C=C/CNC1(COc2ccc(/C(=C(/CC(F)(F)F)c3ccccc3)c3ccc4[nH]nc(F)c4c3)cn2)CC1 [Example 39, (E)-N,N-Dimethyl-4-((1-(((5-((Z)-4,4,4-trifluoro-1-(3-fluoro-1H-indazol-5-yl)-2-phenylbut-1-en-1-yl)pyridin-2-yl)oxy)methyl)cyclopropyl)amino)but-2-enamide] | 8.2 µM |
| O=C(/C=C/CNC1(COc2ccc(/C(=C(/CC(F)(F)F)c3ccccc3)c3ccc4[nH]nc(F)c4c3)cn2)CC1)N1CC(O)C1 [Example 40, (E)-1-(3-Hydroxyazetidin-1-yl)-4-((1-(((5-((Z)-4,4,4-trifluoro-1-(3-fluoro-1H-indazol-5-yl)-2-phenylbut-1-en-1-yl)pyridin-2-yl)oxy)methyl)cyclopropyl)amino)but-2-en-1-one] | 11.5 µM |
| O=C(/C=C/CNC1(COc2ccc(/C(=C(/CC(F)(F)F)c3ccccc3)c3ccc4[nH]nc(F)c4c3)cn2)CC1)N1CC[C@H](O)C1 [Example 41, (E)-1-((S)-3-Hydroxypyrrolidin-1-yl)-4-((1-(((5-((Z)-4,4,4-trifluoro-1-(3-fluoro-1H-indazol-5-yl)-2-phenylbut-1-en-1-yl)pyridin-2-yl)oxy)methyl)cyclopropyl)amino)but-2-en-1-one] | 5.3 µM |
